From patent US8071548B2, “Method of reducing injury to mammalian cells” (Nono, Inc., priority 2002, dated 2011)

Experiments:
traumatic brain injury = test: Lateral fluid percussion injury model of TBI; type: in vivo, Sprague-Dawley rats; details: analyzed 24 h after injury
Method: Adult male Sprague-Dawley rats weighing approximately 350 g were ordered from Charles River and anesthesia was induced using a gaseous mixture of 1:2 oxygen:nitrous oxide with 2% halothane. The halothane level was reduced to 1% during surgical manipulations and weights were recorded prior to preparatory surgery. The preparatory surgery for these experiments included the cannulation of the left femoral vein and a 5 mm diameter craniotomy. The venous cannula is sealed and tucked inside the animal whereupon the wound is sutured. The center of the craniotomy lies about 2.5 mm to the right of the sagittal suture, between the bregma and lambda. A modified Leur-loc is attached to the perimeter of the craniotomy with superglue (FIG. 28).
Dental acrylic (GC America Inc, Alsip, Ill.) is applied around the modified Leur-loc to seal it into place. A small piece of gelfoam is placed into the opening and the skin is sutured over the entire setup. The animal is then returned to its cage. The following day, the animal is re-anesthetized, weighed, and its wound is re-opened. The gelfoam is removed and the animal is attached to the fluid percussion device via the modified Leur-loc. At this time, the animal is given a ˜20 ms saline injection at approximately 2.4 atmospheres (350 mV on the oscilloscope) using the fluid percussion injury device (Custom Design & Fabrication, Richmond, Va.) (FIG. 29).
On occasion, the animal ceases spontaneous breathing following the injury and 1-2 chest compressions are required for resuscitation. The modified Leur-loc along with the dental acrylic is removed en bloc immediately following the injury. The animal is placed on 100% oxygen while its wound is cleaned and resealed with Vetbond tissue adhesive (3M Worldwide, Maplewood, Minn.). The rat's body temperature during the recovery time is maintained at 37° C. with a homeothermic warming blanket (Harvard Bioscience Inc, Holliston, Mass.). The amount of time necessary for the righting reflex to return is recorded and the animal is placed back into its cage. At 3 h post-injury, the animal is re-anesthetized and weighed again. The wound overlying the femoral cannula is opened and the cannula is cleaned out using heparinized saline. […] The cannula is sealed, tucked again into the animal, and the wound is re-sutured. At 24 h post-injury, the animal is re-anesthetized and weighed again. The rat is transcardially perfused using heparinized saline to clean out the cardiovascular system, followed by a 4% formalin fixative solution. The rat is decapitated and left in the fixative solution overnight. The brain is extracted the following day and processed. The volume of damaged brain (FIG. 26, right graph) is assessed according to the same methods as described in Aarts et al., 2002, for assessing stroke volumes. […]

[1] = test system: transient middle cerebral artery occlusion; test: Transient MCAO, dose study of infarct size; type: in vivo, Sprague-Dawley rats; details: 6 mg/kg 1 h before the stroke

| Molecule | total volume of injured brain (traumatic brain injury; 3 hours after TBI) | fraction of dead cells in cerebral cortex and hippocampus ipsilateral to the injury (traumatic brain injury; via femoral cannula 3 hours after TBI) | infarct size versus control dose [1] |
| --- | --- | --- | --- |
| Tat-KLSSIETDV | significantly reduced | markedly reduced fraction of dead cells |  |
| CC(C(O)c1ccc(O)cc1)N1CCC(Cc2ccccc2)CC1 (stereo not drawn) [Ro25-6981, reference compound] |  |  | significant reduction in infarct size |
